Activity and IC50 data for 24 compounds are collected here from ChEMBL document CHEMBL5576062 (Bioorg Med Chem Lett, 2024).

Active and inactive are the calls of the source. No cut-off for these calls is given here. Some results are limits rather than exact numbers.

Tested on in one assay: not listed separately
The assay can be described thus: Binding affinity to Zinc ion assessed as metal chelating activity.
With `NC(Cc1ccc(Cl)cc1Cl)C(=O)N1Cc2ccccc2C1` (stereo not given), the outcome was inactive.

Tested on in another assay: not listed separately
The assay can be described thus: Binding affinity to Zinc ion assessed as metal chelating activity at approximately 1 uM.
`COc1ccc(Cn2ccc3ccc(C(=O)NO)cc32)cc1`: the outcome was Active.

In another assay the target is T1, Histone deacetylase 8 (Homo sapiens, UniProt Q9BY41).
T1 sequence (Q9BY41 whole entry): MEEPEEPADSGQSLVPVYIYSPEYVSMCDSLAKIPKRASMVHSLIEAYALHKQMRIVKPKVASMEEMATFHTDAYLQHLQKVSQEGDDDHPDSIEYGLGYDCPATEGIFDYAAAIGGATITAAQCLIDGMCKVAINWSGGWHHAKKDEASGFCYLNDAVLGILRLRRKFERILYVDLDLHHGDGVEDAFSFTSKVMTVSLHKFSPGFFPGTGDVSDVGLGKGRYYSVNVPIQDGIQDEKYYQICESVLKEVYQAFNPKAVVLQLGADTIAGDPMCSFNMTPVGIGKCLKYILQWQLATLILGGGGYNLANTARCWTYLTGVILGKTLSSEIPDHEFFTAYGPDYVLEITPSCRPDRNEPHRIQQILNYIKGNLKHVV
The assay can be described thus: Inhibition of HDAC8 (unknown origin) by SAMDI high throughput mass spectrometry.
The IC50 is the concentration that inhibits the measured activity by half. High values mean a need for much substance, low ones inhibition by little substance. For `COc1ccc(Cn2ccc3ccc(C(=O)c4nccs4)cc32)cc1`, the concentration for half-maximal inhibition (IC50) stood at 210 µM. Still for that read-out and setting: in the case of `COc1ccc(Cn2ccc3ccc(C(=O)NS(C)(=O)=O)cc32)cc1` it was > 1000 µM. Turning to `COc1ccc(Cn2ccc3ccc(-c4noc(C(F)(F)F)n4)cc32)cc1`, the IC50 is > 1000 µM. For `CCC(=O)Cc1ccc2ccn(Cc3ccc(OC)cc3)c2c1`, the IC50 amounted to 240 µM. The same measure, in the same setting: in the case of `COc1ccc(Cn2ccc3ccc(-c4noc(=S)[nH]4)cc32)cc1` it was 330 µM.

Regarding `CCC(=O)c1ccc2ccn(Cc3ccc(OC)cc3)c2c1`, the IC50 worked out at 120 µM. The same measure, in the same setting: in the case of `COc1ccc(Cn2ccc3ccc(NC(=O)c4ccccc4SC)cc32)cc1` it was 340 µM; in that of `COc1ccc(Cn2ccc3ccc(/C(N)=N/O)cc32)cc1`, 340 µM.

On to `COc1ccc(Cn2ccc3ccc(NC(=O)c4ccccc4N)cc32)cc1`, for which the IC50 came to 130 µM. On the same count and under the same terms, in the case of `COc1ccc(Cn2ccc3ccc(NC(=O)c4ccccc4O)cc32)cc1` it was 360 µM; in that of `COc1ccc(Cn2ccc3ccc(C(=O)Nc4ccccc4N)cc32)cc1`, 150 µM; in that of `COc1ccc(Cn2ccc3ccc(C(=O)Nc4ccccc4SC)cc32)cc1`, 360 µM. On the same count and under the same terms, in the case of `COc1ccc(Cn2ccc3ccc(C(=O)Nc4ccccc4O)cc32)cc1` it was 220 µM; in that of `COc1ccc(Cn2ccc3ccc(NC(=O)c4ccccn4)cc32)cc1`, 490 µM.

Compound `COc1ccc(Cn2ccc3ccc(C(=O)C(F)(F)F)cc32)cc1` showed an IC50 of 570 µM.

As for `COc1ccc(Cn2ccc3ccc(C(=O)N/N=C\c4ccccc4O)cc32)cc1`, the IC50 is > 1000 µM.

Turning to `COc1ccc(Cn2ccc3ccc(C(=O)NS(=O)(=O)N(C)C)cc32)cc1`, half-maximal inhibition (IC50) required 320 µM. On the same count and under the same terms, in the case of `COc1ccc(Cn2ccc3ccc(C(=O)c4cc(C)on4)cc32)cc1` it was 200 µM; in that of `COc1ccc(Cn2ccc3ccc(C(=O)NCC(C)O)cc32)cc1` (stereo not given), 890 µM; in that of `COc1ccc(Cn2ccc3ccc(-c4nn[nH]n4)cc32)cc1`, > 1000 µM. The same measure, in the same setting: in the case of `COc1ccc(Cn2ccc3ccc(-c4noc(=O)[nH]4)cc32)cc1` it was 140 µM; in that of `COc1ccc(Cn2ccc3ccc(C(=O)NCCO)cc32)cc1`, 170 µM. `NC(Cc1ccc(Cl)cc1Cl)C(=O)N1Cc2ccccc2C1` (stereo not given) returned a 50% inhibitory concentration (IC50) of 7.9 µM.
